The values that follow come from patent US20190322676A1, “CERAMIDE GALACTOSYLTRANSFERASE INHIBITORS FOR THE TREATMENT OF DISEASE” (BioMarin Pharmaceutical Inc., priority 2016, published 2019).

Structures can show the parent of a compound that is named as a salt.

This assay addresses T1, human CGT (ceramide galactosyltransferase), CHO/CGT lysate (Homo sapiens, UniProt Q16880).
T1 construct: Full-length human CGT cDNA was cloned into the BamH1/Xho1 site of pcDNA3.1 (+); expressed in transfected cells; host or cells: Chinese hamster ovary (CHO) cells; lysate prepared with M-PER
T1 sequence (Q16880 21-541): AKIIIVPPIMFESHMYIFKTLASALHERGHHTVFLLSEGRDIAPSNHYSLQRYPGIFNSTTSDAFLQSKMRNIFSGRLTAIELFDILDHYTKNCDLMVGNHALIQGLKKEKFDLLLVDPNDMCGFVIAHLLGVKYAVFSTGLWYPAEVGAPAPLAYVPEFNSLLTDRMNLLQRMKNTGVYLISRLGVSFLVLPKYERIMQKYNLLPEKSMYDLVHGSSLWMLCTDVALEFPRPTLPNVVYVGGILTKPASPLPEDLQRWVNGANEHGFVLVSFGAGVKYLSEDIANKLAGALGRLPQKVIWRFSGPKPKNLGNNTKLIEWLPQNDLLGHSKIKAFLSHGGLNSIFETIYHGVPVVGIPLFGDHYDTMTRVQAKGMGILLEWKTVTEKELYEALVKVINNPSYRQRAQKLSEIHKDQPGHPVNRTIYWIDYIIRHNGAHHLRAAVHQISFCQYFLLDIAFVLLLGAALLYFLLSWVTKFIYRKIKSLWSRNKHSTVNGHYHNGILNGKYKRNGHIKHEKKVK
Description: CGT enzyme assay, RapidFire/MS/MS readout (Table 1 ranges with one asterisk *). It is filed as biochemical. The note with it: RapidFire method (range with one asterisk *). A digest of the protocol:
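IC50s come from variable-slope dose-response fits of internal-standard-normalized C6-NBD-dihydro-galactosylceramide, measured by RapidFire/MS/MS (ESI negative). Reactions: 1 h, 37 °C, human CGT-expressing CHO lysate (4 μg), 0.001–50 μM compound, 10 μM NBD-dihydro-ceramide, 17.5 μM UDP-galactose, 0.5% DMSO, pH 7.2; 0.01% Tween 80 added for ** values.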
In general, IC50 refers to the concentration that inhibits the measured activity by half. Low values mean inhibition by little substance, high ones a need for much substance. In the case of `CCCCOc1ccc(C(F)(F)[C@@H](NS(=O)(=O)c2ccc3cc(OC4CCCC4)ccc3c2)C(=O)N2CCC(N)CC2)cc1` [Compound 80-2, (S)—N-(3-(4-aminopiperidin-1-yl)-1-(4-butoxyphenyl)-1,1-difluoro-3-oxopropan-2-yl)-6-(cyclopentyloxy)naphthalene-2-sulfonamide], the IC50 was in the range of 1 to 10 µM.
To `CCCCOc1ccc(C(F)(F)[C@H](NS(=O)(=O)c2ccc(OCC3CCCCC3)cc2)C(=O)N2CCC(N)CC2)cc1` [Compound 81-1, (R)—N-(3-(4-aminopiperidin-1-yl)-1-(4-butoxyphenyl)-1,1-difluoro-3-oxopropan-2-yl)-4-(cyclohexylmethoxy)benzenesulfonamide trifluoroacetate] belongs 1 to 10 µM.
For `CCCCOc1ccc(C(F)(F)[C@@H](NS(=O)(=O)c2ccc(OCC3CCCCC3)cc2)C(=O)N2CCC(N)CC2)cc1` [Compound 81-2, (S)—N-(3-(4-aminopiperidin-1-yl)-1-(4-butoxyphenyl)-1,1-difluoro-3-oxopropan-2-yl)-4-(cyclohexylmethoxy)benzenesulfonamide trifluoroacetate] the value was 30 to 100 µM.
Compound `CCCCOc1ccc(C(F)(F)[C@H](NS(=O)(=O)c2ccc3cc(OC4CCCC4)ccc3c2)C(=O)N2C3CCC2CC(N)C3)cc1` (stereo partly drawn) [Compound 82-1, N-((2R)-3-(3-amino-8-azabicyclo[3.2.1]octan-8-yl)-1-(4-butoxyphenyl)-1,1-difluoro-3-oxopropan-2-yl)-6-(cyclopentyloxy)naphthalene-2-sulfonamide trifluoroacetate] registered an IC50 below 1 µM.
For `CCCCOc1ccc(C(F)(F)[C@@H](NS(=O)(=O)c2ccc3cc(OC4CCCC4)ccc3c2)C(=O)N2C3CCC2CC(N)C3)cc1` (stereo partly drawn) [Compound 82-2, N-((2S)-3-(3-amino-8-azabicyclo[3.2.1]octan-8-yl)-1-(4-butoxyphenyl)-1,1-difluoro-3-oxopropan-2-yl)-6-(cyclopentyloxy)naphthalene-2-sulfonamide trifluoroacetate] the value was 1 to 10 µM.
For `CCCCOc1cccc(C(F)(F)[C@H](NS(=O)(=O)c2ccc3cc(OC4CCCC4)ccc3c2)C(=O)N2CCC(N)CC2)c1` [Compound 83-1, (R)—N-(3-(4-aminopiperidin-1-yl)-1-(3-butoxyphenyl)-1,1-difluoro-3-oxopropan-2-yl)-6-(cyclopentyloxy)naphthalene-2-sulfonamide trifluoroacetate] the value was below 1 µM; for `CCCCOc1cccc(C(F)(F)[C@@H](NS(=O)(=O)c2ccc3cc(OC4CCCC4)ccc3c2)C(=O)N2CCC(N)CC2)c1` [Compound 83-2, (S)—N-(3-(4-aminopiperidin-1-yl)-1-(3-butoxyphenyl)-1,1-difluoro-3-oxopropan-2-yl)-6-(cyclopentyloxy)naphthalene-2-sulfonamide trifluoroacetate], 1 to 10 µM.
In turn, `NC1CC2CCC(C1)N2C(=O)[C@@H](NS(=O)(=O)c1ccc(OCC2CCCCC2)cc1)C(F)(F)c1ccc(Oc2ccccc2)cc1` (stereo partly drawn) [Compound 84-1, N-((2R)-3-(3-amino-8-azabicyclo[3.2.1]octan-8-yl)-1,1-difluoro-3-oxo-1-(4-phenoxyphenyl)propan-2-yl)-4-(cyclohexylmethoxy)benzenesulfonamide] came in with a concentration for half-maximal inhibition (IC50) of 1 to 10 µM.
As to `NC1CC2CCC(C1)N2C(=O)[C@H](NS(=O)(=O)c1ccc(OCC2CCCCC2)cc1)C(F)(F)c1ccc(Oc2ccccc2)cc1` (stereo partly drawn) [Compound 84-2, N-((2S)-3-(3-amino-8-azabicyclo[3.2.1]octan-8-yl)-1,1-difluoro-3-oxo-1-(4-phenoxyphenyl)propan-2-yl)-4-(cyclohexylmethoxy) benzenesulfonamide], the IC50 fell in the range of 10 to 30 µM.
To `CN([C@H](C(=O)N1C2CCC1CC(N)C2)C(F)(F)c1ccc(Oc2ccccc2)cc1)S(=O)(=O)c1ccc(OCC2CCCCC2)cc1` (stereo partly drawn) [Compound 85-1, N-((2R)-3-(3-amino-8-azabicyclo[3.2.1]octan-8-yl)-1,1-difluoro-3-oxo-1-(4-phenoxyphenyl)propan-2-yl)-4-(cyclohexylmethoxy)-N-methylbenzene sulfonamide trifluoroacetate] belongs 1 to 10 µM; to `CN([C@@H](C(=O)N1C2CCC1CC(N)C2)C(F)(F)c1ccc(Oc2ccccc2)cc1)S(=O)(=O)c1ccc(OCC2CCCCC2)cc1` (stereo partly drawn) [Compound 85-2, N-((2S)-3-(3-amino-8-azabicyclo[3.2.1]octan-8-yl)-1,1-difluoro-3-oxo-1-(4-phenoxyphenyl)propan-2-yl)-4-(cyclohexylmethoxy)-N-methylbenzenesulfonamide trifluoroacetate], 10 to 30 µM; to `NC1CC2CCC(C1)N2C(=O)[C@@H](NS(=O)(=O)c1ccc2cc(OC3CCCC3)ccc2c1)C(F)(F)c1ccc(Oc2ccccc2)cc1` (stereo partly drawn) [Compound 86-1, N-((2R)-3-(3-amino-8-azabicyclo[3.2.1]octan-8-yl)-1,1-difluoro-3-oxo-1-(4-phenoxyphenyl)propan-2-yl)-6-(cyclopentyloxy)naphthalene-2-sulfonamide trifluoroacetate], below 1 µM.
Take `NC1CC2CCC(C1)N2C(=O)[C@H](NS(=O)(=O)c1ccc2cc(OC3CCCC3)ccc2c1)C(F)(F)c1ccc(Oc2ccccc2)cc1` (stereo partly drawn) [Compound 86-2, N-((2S)-3-(3-amino-8-azabicyclo[3.2.1]octan-8-yl)-1,1-difluoro-3-oxo-1-(4-phenoxyphenyl)propan-2-yl)-6-(cyclopentyloxy)naphthalene-2-sulfonamide trifluoroacetate]: the IC50 is 1 to 10 µM.
For `CN([C@H](C(=O)N1C2CCC1CC(N)C2)C(F)(F)c1ccc(Oc2ccccc2)cc1)S(=O)(=O)c1ccc2cc(OC3CCCC3)ccc2c1` (stereo partly drawn) [Compound 87-1, N-((2R)-3-(3-amino-8-azabicyclo[3.2.1]octan-8-yl)-1,1-difluoro-3-oxo-1-(4-phenoxyphenyl)propan-2-yl)-6-(cyclopentyloxy)-N-methylnaphthalene-2-sulfonamide trifluoroacetate], the IC50 is below 1 µM.
In the case of `CN([C@@H](C(=O)N1C2CCC1CC(N)C2)C(F)(F)c1ccc(Oc2ccccc2)cc1)S(=O)(=O)c1ccc2cc(OC3CCCC3)ccc2c1` (stereo partly drawn) [Compound 87-2, N-((2S)-3-(3-amino-8-azabicyclo[3.2.1]octan-8-yl)-1,1-difluoro-3-oxo-1-(4-phenoxyphenyl)propan-2-yl)-6-(cyclopentyloxy)-N-methylnaphthalene-2-sulfonamide trifluoroacetate], the IC50 lay within 1 to 10 µM.
To `NC1CC2CCC(C1)N2C(=O)[C@@H](NS(=O)(=O)c1ccc2c(cnn2CC2CCCC2)c1)C(F)(F)c1ccc(Cl)cc1` (stereo partly drawn) [Compound 88-1, N-((2R)-3-(3-amino-8-azabicyclo[3.2.1]octan-8-yl)-1-(4-chlorophenyl)-1,1-difluoro-3-oxopropan-2-yl)-1-(cyclopentylmethyl)-1H-indazole-5-sulfonamide] belongs 1 to 10 µM; to `NC1CC2CCC(C1)N2C(=O)[C@H](NS(=O)(=O)c1ccc2c(cnn2CC2CCCC2)c1)C(F)(F)c1ccc(Cl)cc1` (stereo partly drawn) [Compound 88-2, N-((2S)-3-(3-amino-8-azabicyclo[3.2.1]octan-8-yl)-1-(4-chlorophenyl)-1,1-difluoro-3-oxopropan-2-yl)-1-(cyclopentylmethyl)-1H-indazole-5-sulfonamide], 30 to 100 µM.
For `COc1cc(C(F)(F)[C@H](NS(=O)(=O)c2ccc3cc(OC4CCCC4)ccc3c2)C(=O)N2C3CCC2CC(N)C3)ccc1Br` (stereo partly drawn) [Compound 89-1, N-((2R)-3-(3-amino-8-azabicyclo[3.2.1]octan-8-yl)-1-(4-bromo-3-methoxyphenyl)-1,1-difluoro-3-oxopropan-2-yl)-6-(cyclopentyloxy)naphthalene-2-sulfonamide] the value was below 1 µM; for `COc1cc(C(F)(F)[C@@H](NS(=O)(=O)c2ccc3cc(OC4CCCC4)ccc3c2)C(=O)N2C3CCC2CC(N)C3)ccc1Br` (stereo partly drawn) [Compound 89-2, N-((2S)-3-(3-amino-8-azabicyclo[3.2.1]octan-8-yl)-1-(4-bromo-3-methoxyphenyl)-1,1-difluoro-3-oxopropan-2-yl)-6-(cyclopentyloxy)naphthalene-2-sulfonamide], 1 to 10 µM.
To `CCCCOc1cccc(C(F)(F)[C@H](NS(=O)(=O)c2ccc3cc(OC4CCCC4)ccc3c2)C(=O)N2C3CCC2CC(N)C3)c1` (stereo partly drawn) [Compound 90-1, N-((2R)-3-(3-amino-8-azabicyclo[3.2.1]octan-8-yl)-1-(3-butoxyphenyl)-1,1-difluoro-3-oxopropan-2-yl)-6-(cyclopentyloxy)naphthalene-2-sulfonamide trifluoroacetate] belongs below 1 µM; to `CCCCOc1cccc(C(F)(F)[C@@H](NS(=O)(=O)c2ccc3cc(OC4CCCC4)ccc3c2)C(=O)N2C3CCC2CC(N)C3)c1` (stereo partly drawn) [Compound 90-2, N-((2S)-3-(3-amino-8-azabicyclo[3.2.1]octan-8-yl)-1-(3-butoxyphenyl)-1,1-difluoro-3-oxopropan-2-yl)-6-(cyclopentyloxy)naphthalene-2-sulfonamide trifluoroacetate], 1 to 10 µM.
